This series can be described thus: Phenytoin dissolution control. The class given is physicochemical. As to the method:
Probucol and phenytoin concentrations were quantified using a Agilent 1260 Infinity Quaternary HPLC equipped. The HPLC consisted of a reversed-phase EC-C18 column (Poroshell 120, 4.6×50 mm, 2.7 μm, Agilent, USA). The mobile phase was acetonitrile:water 96:4 for probucol and acetonitrile:water 40:60 for phenytoin, and the flow rate was 1.0 mL/min. A 10 μL aliquot of sample was injected, and the column effluent was detected at 241 nm for probucol (eluted at 2.90 min) and 225 nm for phenytoin (eluted at 1.40 min) with a UV detector (1260 Infinity Multiple Wavelength Detector, Agilent). The standard curve linearity was verified from 0.1 to 1000 μg/mL with an r^2 value of at least 0.999.

The values that follow come from patent publication US10030089B2, “Sugar free, statistical copolymers made from at least three monomers” (REGENTS OF THE UNIVERSITY OF MINNESOTA, priority 2013, dated 2018).

With `O=C1NC(=O)C(c2ccccc2)(c2ccccc2)N1` [Phenytoin, phenytoin], the Concentration (Time (s) 0) amounted to 0 ng/mL; the Concentration (Time (s) 4) was found to be 38000 ng/mL; the Concentration (Time (s) 10) turned out to be 46000 ng/mL; the Concentration (Time (s) 20) amounted to 45000 ng/mL; the Concentration (Time (s) 40) amounted to 48000 ng/mL; the Concentration (Time (s) 90) was determined as 51000 ng/mL. The Concentration (Time (s) 180) is 45000 ng/mL and the Concentration (Time (s) 360) is 48000 ng/mL.
